Where “and” joins values, the source holds several entries; their conditions need not be identical. Identical values can stand only once.
Tested on: BDF1 mice, Adenocarcinoma 755 s.c., tumor weight T/C
Experiment: NCI In Vivo Anticancer Drug Screen. Data for tumor model Adenocarcinoma 755 (subcutaneous) in B6D2F1 (BDF1) mice
Details: endpoint: mean tumor weight, higher = larger tumour
Outline: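 Readout: T/C, i.e. treated-group measurement over vehicle-control measurement. Endpoint is survival or tumor size in tumor-bearing mice given compound.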

CCCCn1nnc2c(Nc3ccc(Cl)cc3)nc(N)nc21 was tested, and the T/C (dose: 62.5 mg/kg/injection, schedule: Q01DX011 (ip), vehicle: carboxymethylcellulose (CMC)) was 96 % of control, the T/C (dose: 125.0 mg/kg/injection, schedule: Q01DX011 (ip), vehicle: carboxymethylcellulose (CMC)) was 89 % of control and the T/C (dose: 250.0 mg/kg/injection, schedule: Q01DX011 (ip), vehicle: carboxymethylcellulose (CMC)) was 68 % of control.
CC1CCC(n2cnc3c([N+](C)(C)C)ncnc32)O1 (configuration not stated) was tested, and the T/C (dose: 15.0 mg/kg/injection, schedule: Q01DX011 (ip), vehicle: saline) was 58 % of control, the T/C (dose: 30.0 mg/kg/injection, schedule: Q01DX011 (ip), vehicle: saline) was 35 % of control and 40 % of control and the T/C (dose: 60.0 mg/kg/injection, schedule: Q01DX011 (ip), vehicle: saline) was 5 % of control. The T/C (dose: 120.0 mg/kg/injection, schedule: Q01DX011 (ip), vehicle: saline) was 1 % of control.
Nc1nc(SCc2ccccc2Cl)c2ncn(C3OC(CO)C(O)C3O)c2n1 (configuration not stated) was tested, and the T/C (dose: 0.85 mg/kg/injection, schedule: Q01DX011 (ip), vehicle: methylcellulose (MC)) was 69 % of control, the T/C (dose: 1.7 mg/kg/injection, schedule: Q01DX011 (ip), vehicle: methylcellulose (MC)) was 22 % of control and the T/C (dose: 3.4 mg/kg/injection, schedule: Q01DX011 (ip), vehicle: methylcellulose (MC)) was 26 % of control. The T/C (dose: 6.75 mg/kg/injection, schedule: Q01DX011 (ip), vehicle: methylcellulose (MC)) was 4 % of control.
In the case of O=C(CCCl)N1CCc2ccccc2C1, the T/C (dose: 25.0 mg/kg/injection, schedule: Q01DX011 (sc), vehicle: olive oil, sesame oil, peanut oil) is reported as 71 % of control and the T/C (dose: 75.0 mg/kg/injection, schedule: Q01DX011 (sc), vehicle: olive oil, sesame oil, peanut oil) is reported as 99 % of control.
For C[C@@H]1C[C@H]2CC[C@H](O2)[C@H](C)C(=O)O[C@@H](C)C[C@@H]2CC[C@@H](O2)[C@@H](C)C(=O)O[C@H](C)C[C@H]2CC[C@H](O2)[C@H](C)C(=O)O[C@@H](C)C[C@@H]2CC[C@@H](O2)[C@@H](C)C(=O)O1, the T/C (dose: 2.5 mg/kg/injection, schedule: Q01DX011 (ip), vehicle: olive oil, sesame oil, peanut oil) was 116 % of control, the T/C (dose: 5.0 mg/kg/injection, schedule: Q01DX011 (ip), vehicle: olive oil, sesame oil, peanut oil) was 85 % of control and the T/C (dose: 10.0 mg/kg/injection, schedule: Q01DX011 (ip), vehicle: olive oil, sesame oil, peanut oil) was 96 % of control. For the same compound, the T/C (dose: 10.0 mg/kg/injection, schedule: Q01DX011 (sc), vehicle: olive oil, sesame oil, peanut oil) was 118 % of control, the T/C (dose: 18.0 mg/kg/injection, schedule: Q01DX011 (ip), vehicle: carboxymethylcellulose (CMC)) was 116 % of control and the T/C (dose: 19.0 mg/kg/injection, schedule: Q01DX011 (ip), vehicle: methylcellulose (MC)) was 89 % of control. The T/C (dose: 19.0 mg/kg/injection, schedule: Q01DX011 (sc), vehicle: methylcellulose (MC)) was 246 % of control, the T/C (dose: 20.0 mg/kg/injection, schedule: Q01DX011 (ip), vehicle: olive oil, sesame oil, peanut oil) was 48 % of control and the T/C (dose: 20.0 mg/kg/injection, schedule: Q01DX011 (sc), vehicle: olive oil, sesame oil, peanut oil) was 73 % of control. For the same compound, the T/C (dose: 30.0 mg/kg/injection, schedule: Q01DX011 (sc), vehicle: olive oil, sesame oil, peanut oil) was 87 % of control, the T/C (dose: 36.0 mg/kg/injection, schedule: Q01DX011 (ip), vehicle: carboxymethylcellulose (CMC)) was 98 % of control and the T/C (dose: 37.5 mg/kg/injection, schedule: Q01DX011 (sc), vehicle: methylcellulose (MC)) was 159 % of control. For the same compound, the T/C (dose: 40.0 mg/kg/injection, schedule: Q01DX011 (ip), vehicle: carboxymethylcellulose (CMC)) was 87 % of control, the T/C (dose: 50.0 mg/kg/injection, schedule: Q01DX011 (ip), vehicle: carboxymethylcellulose (CMC)) was 92 % of control and the T/C (dose: 60.0 mg/kg/injection, schedule: Q01DX011 (ip), vehicle: carboxymethylcellulose (CMC)) was 89 % of control. The T/C (dose: 60.0 mg/kg/injection, schedule: Q01DX011 (sc), vehicle: olive oil, sesame oil, peanut oil) was 57 % of control, the T/C (dose: 75.0 mg/kg/injection, schedule: Q01DX011 (ip), vehicle: methylcellulose (MC)) was 91 % of control and the T/C (dose: 150.0 mg/kg/injection, schedule: Q01DX011 (sc), vehicle: methylcellulose (MC)) was 211 % of control.
With CS(=O)(=O)OCCC(=O)N1CCN(C(=O)CCOS(C)(=O)=O)CC1 the T/C (dose: 9.4 mg/kg/injection, schedule: Q01DX011 (ip), vehicle: methylcellulose (MC)) was 73 % of control, the T/C (dose: 22.0 mg/kg/injection, schedule: Q01DX011 (ip), vehicle: methylcellulose (MC)) was 24 % of control and 45 % of control and the T/C (dose: 37.5 mg/kg/injection, schedule: Q01DX011 (ip), vehicle: methylcellulose (MC)) was 15 % of control. For the same compound, the T/C (dose: 44.0 mg/kg/injection, schedule: Q01DX011 (ip), vehicle: methylcellulose (MC)) was 9 % of control and 18 % of control and the T/C (dose: 88.0 mg/kg/injection, schedule: Q01DX011 (ip), vehicle: methylcellulose (MC)) was 3 % of control and 6 % of control.
With O=C(CCl)Nc1ncnc2nc[nH]c12 the T/C (dose: 20.0 mg/kg/injection, schedule: Q01DX011 (ip), vehicle: methylcellulose (MC)) was 84 % of control.

Reference: PubChem BioAssay AID180 (DTP/NCI, 2004)
